| SMILES | melting point |
| --- | --- |
| Cc1cc(C)c(Nc2nc(C)ccc2S(=O)(=O)c2ccc(OCc3ccccn3)cc2)c(C)c1 | 182 to 184 °C |
| CCC(NC(=O)c1ccc(Cl)cc1)NC(=NC#N)Nc1cccnc1 (configuration not stated) | 181 to 183 °C |
| COc1ccc(CCc2ccc3ccc(C(=O)NCC(O)c4ccccc4)c(O)c3n2)cc1 (configuration not stated) | 69 to 72 °C |
| Cc1nc2ncnn2c2c1CCN2Cc1ccccc1 | 170 to 172 °C |
| NC(=O)NC1CCN2CCc3ccccc3C2C1 (configuration not stated) | 235 °C |
| CCCCCCCCCCCCCCCC(=O)NCCCCCCCCCCCC(=O)O | 119 to 121 °C |
| CC(=O)SCC(Cc1ccccc1)C(=O)Nc1cccc(C(=O)OCc2ccccc2)c1 (configuration not stated) | 108 to 109 °C |
| CS(=O)(=O)Nc1ccc2ncnc(N)c2c1 | 287 to 290 °C |
| COc1cc(C(=O)NS(=O)(=O)c2ccccc2Cl)ccc1Cn1cc(/C=C/C(=O)N2CCCC2)c2ccc(/C=C/C(=O)N3CCCC3)cc21 | 291 to 293 °C |
| COc1ccc(-c2ccc(C(N)=O)cc2)cc1Br | 246 to 250 °C |
| CCCCCCCCCCCCOC(=O)c1cc(N)ccc1[N+](=O)[O-] | 58 to 59 °C |
| O=c1nc(-c2cccc(Cl)c2)c2cc(Br)ccc2[nH]1 | 281 °C |
| Brc1cncc2ncc(Br)n12 | 150 °C |
| O=Cc1c(Cl)cc(O)c(O)c1Cl | 213 to 215 °C |
| CC(C)c1ccc2c(c1)C(c1ccc(Cl)c(Cl)c1)Cc1cnc(N)nc1-2 (configuration not stated) | 174 to 176 °C |
| O=C(Nc1ccccc1)c1cccc([N+](=O)[O-])c1 | 153 to 154 °C |
| CC(C)N(C(=O)CBr)C(C)C | 64 to 65.5 °C |
| CCCCCCCCCCCCNC(=O)COc1ccc(O)cc1[N+](=O)[O-] | 150 to 151 °C |
| Oc1c(Cl)cc(Cn2c(=S)sc3ccccc32)cc1Cl | 169 to 172 °C |

| SMILES | melting point |
| --- | --- |
| CC1(C)COC(=O)[C@@H]1Oc1ccc(C#N)c(C(F)(F)F)c1 | 89.9 to 90.7 °C |
| O=C(CCN1CCN(c2ncc(F)cn2)CC1)Cc1cccs1 | 77 to 78 °C |
| CC1Cc2cc(Cl)ccc2C(c2ccc([N+](=O)[O-])cc2)=NN1 (configuration not stated) | 152 to 154 °C |
| N#CC1=CC(CF)(CF)Oc2ccc(Br)cc21 | 105 to 107 °C |
| COC(=O)c1cn(-c2ccnc3ccccc23)c2cc(F)ccc12 | 186 °C |
| CN(CCO)c1nc2ccccc2o1 | 62 to 63 °C |
| Cc1c(CCO)c(=O)oc2cc(O)cc(O)c12 | 243 to 245 °C |
| O=C(CNc1c(C(=O)O)[nH]c2cc(Cl)cc(Cl)c12)c1cccc(F)c1 | 270 to 280 °C |
| CS(=O)(=O)Nc1cc2occ(-c3cscn3)c(=O)c2cc1Oc1ccccc1 | > 250 °C |
| Cc1ccnc(Cl)c1C(N)=O | 168 to 170 °C |
| O=C(O)CC[C@H]1CC[C@H]2CN[C@H](C(=O)O)C[C@H]2C1 (racemic) | 190 to 191 °C |
| CC(C)c1nc(CN)n(C)c1Sc1cccc(Cl)c1 | 99 to 101 °C |
| Nc1cc(-n2cc(C(=O)O)c(=O)c3ccc(Cl)nc32)c(F)cc1F | > 270 °C |
| O=c1[nH]c2ccccc2n1CCCN1CCN(c2n[nH]c3ccccc23)CC1 | 178 to 180 °C |
| NCC(=O)NCc1ccc(F)cc1 | 114 to 115 °C |
| Nc1ncc(-c2cc(C(F)(F)F)cc(C(F)(F)F)c2)nc1C(=O)Nc1cccnc1 | 220 to 222 °C |
| O=C(O)COc1ccc2c(-c3cccc(F)c3F)noc2c1Cl | 183 to 187 °C |
| Cc1cc(O)cc(C)c1N=Cc1ccccc1O | 145 to 147 °C |
| CC(C)Cn1c(CO)c(-c2ccc(F)cc2)c2cc(OCc3ccccc3)ccc2c1=O | 143 to 144 °C |

Results, then the compound that gave them:

| melting point | SMILES |
| --- | --- |
| 86 to 89 °C | COC(=O)CCC(=O)c1cc2c(cc1Cl)CC(NC(=O)OC)CC2 (configuration not stated) |
| 124 to 125 °C | COC(=O)C(=O)c1ccc(SCCOc2ccc3ccccc3c2)cc1 |
| 132 to 134 °C | CC(=O)NCC(=O)NCC1(SCc2ccccc2)C2CC3CC(C2)CC1C3 (configuration not stated) |
| 195 °C | NC1=NN(C(=O)NC=NO)C(=O)C1Cc1ccccc1 (configuration not stated) |
| 137 to 141 °C | CC(=O)n1c(=O)n(CCN2CCC(C(=O)c3ccc(F)cc3)CC2)c(=O)c2ccsc21 |
| 91 to 92 °C | C[C@@H]1C(=O)N(CO)Cc2ccccc2[C@@H]1C (relative stereo) |
| 126 to 136 °C | COc1cc(C(=O)NS(=O)(=O)c2ccccc2Cl)ccc1Cc1c(Cl)n(C)c2ccc(CC(C)NC(=O)N(C)C)cc12 (configuration not stated) |
| 233 to 234 °C | Cc1cnc(C)n2c1c(CCN1CCC(NC(=O)c3ccccc3)CC1)c1ccccc12 |
| 142 to 145 °C | CCOC(=O)N(N=C[N+](=O)[O-])c1ccc(C(=O)OC)c(S(=O)(=O)NC(C)(C)C)c1 |
| 132 to 134 °C | C=C(COc1ccc(C(=O)CCC(=O)O)cc1F)COc1ccc(C(C)=O)c(O)c1CCC |
| 232 to 234 °C | O=c1c2cc(F)c(N3CCCC3)cc2n(-c2ccc(F)cc2F)c(=O)n1O |
| 94 to 97 °C | COc1cc(C(Cn2ccnc2)Sc2ccc(C(=O)O)cc2)cc(OC)c1OC (configuration not stated) |
| 44 to 46 °C | COc1ccc(SC2=C(C(=O)NO)CCC2=CCCc2ccccc2)cc1OC |
| 86 to 87 °C | CCN1C[C@@H](C(=O)OC(C)(C)C)NC1=O |
| 185 °C | Cc1cccc(N(C)C(=O)c2cc(=O)n(C)c3ccc(C(O)(c4ccc(Cl)cc4)c4cncn4C)cc23)c1 (configuration not stated) |
| 72 to 74 °C | COC(=O)c1ccc(Cl)c([N+](=O)[O-])c1Cl |
| 222 °C | CCOC(=O)C(=CNc1cc([N+](=O)[O-])ccc1O)C(=O)c1cc(F)c(F)c(F)c1F |

| melting point | SMILES |
| --- | --- |
| 91 to 92 °C | CCC(=O)NCc1c[nH]c2ccccc12 |
| 77 °C | CCCCOc1n[nH]c(=O)n1C |
| 254 to 257 °C | CCc1c([N+](=O)[O-])c(C(N)=O)nn1C1CN(C(c2ccccc2)c2ccccc2)C1 |
| 135 to 136 °C | CCCCCCC(CCC(=O)OC)n1cnc(NC(=O)c2ccccc2C(=O)O)c1 (configuration not stated) |
| 201 to 205 °C | COC(=O)CCC1=C(C)C2=NC1(CCC(=O)OC)C(C)C1(CCC#N)NC(C)(C=C3C=CC(=N3)C=c3ccc([nH]3)=C2)C(CCC#N)=C1C (configuration not stated) |
| 95 to 97 °C | CCOC(=O)c1cc2cccc(OCC(O)CCl)c2o1 (configuration not stated) |
| 128 to 131 °C | CCc1nn(-c2cc(NC(=O)CCOC)ccc2Cl)c(=O)n1Cc1ccc(-c2ccccc2S(=O)(=O)NC(=O)OC(C)(C)C)cc1F |
| 227 °C | Nc1ccccc1C(=O)NCCN1CCC(n2c(=O)[nH]c3cc(Cl)ccc32)CC1 |
| 216 to 218 °C | CN1C(=O)c2cccc3c(S(C)(=O)=O)ccc1c23 |
| 118 to 119 °C | COC(=O)c1ccc(-n2c(C)ccc2C#N)cc1 |
| 133 to 134 °C | COc1ccc2c(c1)C1(CC#N)CCC(=O)C=C1CC2 (configuration not stated) |
| 139 to 140 °C | CCCCCCCCOC(C)c1ccc(-c2ccc(C(=O)O)cc2)cc1 (single isomer, unassigned; (+)) |
| 53 to 57 °C | CC(C)OP(=O)(CC1(C(=O)O)CCCC1)OC(C)C |
| 208 to 210 °C | N#Cc1cc2c(cc1F)S(=O)(=O)NCN2C1CC1 |
| 148 to 150 °C | C=C(C)C1CCC2C3CC(=O)C4=CC(=O)CCC4(C)C3CCC12C (configuration not stated) |
| 263 to 264 °C | Cc1nc2c3c(c(C(=O)N4CCCC4)cc2n1C)CCC1(Cc2ccccc2C1)N3 |
| 178 °C | CCOC(=O)C(=O)Nc1c(Cl)cc(Cl)c(Cl)c1O |

From a melting point compilation (Tetko et al.; mined from patent text by program, amines drawn as free bases though some values may be those of a salt)
